Experimental data reported in US5929254A, “1,2-dioxetane derivatives” (Fujirebio Inc., priority 1996, dated 1999).

Key:
[1] = Chemiluminescence on addition to cesium hydroxide in methanol or aqueous methanol, measured with a fluorescence analyzer; assay type: physicochemical; conditions: 25° C.
Procedure: 1 ml of a 3.12×10^-3 M methanol solution of 4-(4-acetyl-3-hydroxyphenyl)-3,3-(bicyclo[3.3.1]nonan-3,7-diyl)-4-methoxy- 1,2-dioxethane (Compound [10]) synthesized in Example 2 was added to 2 ml of a 1.5×10^-1 M methanol solution of cesium hydroxide at 25° C.
The luminescence at the moment of the addition of the compound [10] to the methanol solution of cesium hydroxide was measured with a fluorescence analyzer in the same manner as in Test Example 1.
(§1) The measurement of the luminescence of the compound [10] in Test Example 2 was repeated in the same manner as in Test Example 2 except that the methanol used as the solvent for cesium hydroxide employed in Test Example 2 was replaced by an aqueous solution of methanol (water: 50%) without changing the concentration of cesium in the diluted methanol solution.
Thus, the luminescence at the moment of the addition of the compound [10] to the diluted methanol solution of cesium hydroxide was measured with a fluorescence analyzer in the same manner as in Test Example 1.
as §1, with “97%)” for “50%)”
1 ml of a 3.12×10^-3 M methanol solution of 3,3-(bicyclo[3.3.1]nonan-3,7-diyl)-4-(3-hydroxyphenyl)-4-methoxy-1,2-dioxetane (Comparative Compound) was added to 2 ml of a 1.5×10^-1 M methanol solution of cesium hydroxide at 25° C.
It was tried to measure the luminescence at the moment of the addition of the comparative compound to the methanol solution of cesium hydroxide with a fluorescence analyzer in the same manner as in Test Example 1.
(§2) The measurement of he luminescence of the comparative compound in Comparative Test Example 2 was repeated in the same manner as in Comparative Test Example 2 except that the methanol used as the solvent for cesium hydroxide employed in Comparative Test Example 2 was replaced by an aqueous solution of methanol (water: 50%) without changing the concentration of cesium in the diluted methanol solution.
Thus, the luminescence at the moment of the addition of the comparative compound to the diluted methanol solution of cesium hydroxide was measured with a fluorescence analyzer in the same manner as in Test Example 1.
as §2, with “of the” for “of he”, “(water: 97%)” for “(water: 50%)”

[2] = Chemiluminescence on addition to tetrabutylammonium fluoride in DMSO, measured with a fluorescence analyzer; assay type: physicochemical; conditions: tetrabutylammonium fluoride 1.5×10^-1 M, 25° C.
Procedure: 1 ml of a […] dimethylsulfoxide(DMSO) solution of 4-(4-acetyl-3-hydroxyphenyl)-3,3-(bicyclo[3.3.1]nonan-3,7-diyl)-4-methoxy- 1,2-dioxethane (Compound [10]) synthesized in Example 2 was added to 2 ml of 1.5×10^-1 M DMSO solution of tetrabutylammonium fluoride at 25° C.
The luminescence at the moment of the addition of the compound [10] to the DMSO solution of tetrabutylammonium fluoride was measured with a fluorescence analyzer.
1 ml of a 2.94×10^-3 M dimethylsulfoxide (DMSO) solution of 3,3-(bicyclo[3.3.1]nonan-3,7-diyl)-4-(3-hydroxyphenyl)-4-methoxy-1,2-dioxetane (Comparative Compound) was added to 2 ml of 1.5×10^-1 M DMSO solution of tetrabutylammonium fluoride at 25° C.
The luminescence at the moment of the addition of the comparative compound to the DMSO solution of tetrabutylammonium fluoride was measured with a fluorescence analyzer in the same manner as in Example 1.

[3] = Aqueous solution of methanol (water: 50%), cesium hydroxide
[4] = Aqueous solution of methanol (water: 97%), cesium hydroxide
[5] = Methanol, cesium hydroxide 1.5×10^-1 M, compound 3.12×10^-3 M
[6] = methanol solution of cesium hydroxide, in words

| Half-life (sec) of Luminescence [1, 3] [s] | Luminescence Quantum Efficiency [1, 3] | λmax (nm) [1, 3] [nm] | Half-life (sec) of Luminescence [1, 4] [s] | Luminescence Quantum Efficiency [1, 4] | λmax (nm) [1, 4] [nm] | Half-life (sec) of Luminescence [1, 5] [s] | Luminescence Quantum Efficiency [1, 5] | λmax (nm) [1, 5] [nm] | Luminescence Quantum Efficiency [2] | λmax (nm) [2] [nm] | intensity of the luminescence [1, 6] | Structure (SMILES) | Half-life (sec) of Luminescence [2] [s] | half-life of the luminescence [1, 6] |
| --- | --- | --- | --- | --- | --- | --- | --- | --- | --- | --- | --- | --- | --- | --- |
| 29000 | 0.023 | 496 | 8200 | 0.0064 | 496 | 120000 | 0.030 | 493 | 0.13 | 486 | – | COC1(c2ccc(C(C)=O)c(O)c2)OOC12C1CC3CC(C1)CC2C3 (centres unmarked) [Compound [10], 4-(4-acetyl-3-hydroxyphenyl)-3,3-(bicyclo[3.3.1]nonan-3,7-diyl)-4-methoxy-1,2-dioxethane] | 23000 | – |
| 452 | 3.9 × 10^-5 | 472 | 173 | 6.7 × 10^-6 | 474 | – | – | – | 0.22 | 465 | extremely small | COC1(c2cccc(O)c2)OOC12C1CC3CC(C1)CC2C3 (centres unmarked) [Comparative Compound, 3,3-(bicyclo[3.3.1]nonan-3,7-diyl)-4-(3-hydroxyphenyl)-4-methoxy-1,2-dioxetane, reference compound] | 5.1 | extremely long |
